Laboratory results as given in the supplement of paper PMC10307832.

Assays:
Test in all cases: relative viability (nuclei count vs DMSO), 5 days (fraction); higher = more cells survive
[1] = compound: CC1=CC(=NN1)NC2=CC(=NC(=N2)/C=C/C3=CC=CC=C3)N4CCN(CC4)C + O=C(c1cc(Cc2n[nH]c(=O)c3ccccc23)ccc1F)N1CCN(C(=O)C2CC2)CC1 [Olaparib] (partner 8 µM)
How it was run: (§1)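 Values are medians from duplicate plates. Each reflects relative viability, defined as the nuclei count of treated wells over that of vehicle wells. Lung cancer cell lines in 1536-well plates were pin-tool dosed one day after seeding with one drug alone or with a fixed anchor-drug dose plus five library-drug doses (not always all listed) in √10 steps, then fixed, stained and imaged at 4× after 5 days.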

Obatoclax + Dasatinib = compound: COC1=CC(c2cc3ccccc3[nH]2)=N/C1=C\c1[nH]c(C)cc1C [Obatoclax] + Cc1nc(Nc2ncc(C(=O)Nc3c(C)cccc3Cl)s2)cc(N2CCN(CCO)CC2)n1 [Dasatinib] (partner 0.075 µM)
How it was run: as §1

[2] = compound: CC1=CC(=NN1)NC2=CC(=NC(=N2)/C=C/C3=CC=CC=C3)N4CCN(CC4)C + Cc1cc(Nc2cc(N3CCN(C)CC3)nc(Sc3ccc(NC(=O)C4CC4)cc3)n2)n[nH]1 [Tozasertib] (partner 0.1 µM)
How it was run: as §1

[3] = compound: CC1=CC(=NN1)NC2=CC(=NC(=N2)/C=C/C3=CC=CC=C3)N4CCN(CC4)C + C[C@]1(O)C[C@@H](c2nc(-c3ccc4ccc(-c5ccccc5)nc4c3)c3c(N)nccn32)C1 [Linsitinib] (partner 1 µM)
How it was run: as §1

Cell Line: NCI-H650
- relative viability ([1]; first compound 0.08 µM): 0.376
- relative viability ([1]; first compound 0.253 µM): 0.431
- relative viability ([1]; first compound 0.8 µM): 0.416
- relative viability ([1]; first compound 2.53 µM): 0.344
- relative viability ([1]; first compound 8 µM): 0.136
- relative viability (Obatoclax + Dasatinib; first compound 0.01 µM): 0.451
- relative viability (Obatoclax + Dasatinib; first compound 0.03162 µM): 0.431
- relative viability (Obatoclax + Dasatinib; first compound 0.3162 µM): 0.279
- relative viability (Obatoclax + Dasatinib; first compound 1 µM): 0.263
- relative viability ([2]; first compound 0.253 µM): 0.822
- relative viability ([2]; first compound 0.8 µM): 0.603
- relative viability ([2]; first compound 2.53 µM): 0.4
- relative viability ([2]; first compound 8 µM): 0.173
- relative viability ([3]; first compound 0.08 µM): 0.674
- relative viability ([3]; first compound 0.253 µM): 1.06
- relative viability ([3]; first compound 0.8 µM): 0.777
- relative viability ([3]; first compound 2.53 µM): 0.278
- relative viability ([3]; first compound 8 µM): 0.202
